Experiments:
35S:ADS A. thaliana = assay: amorpha-4,11-diene production in 35S:ADS A. thaliana seedlings cultured in MS liquid medium with inhibitor (GC-MS); type: in vivo, Arabidopsis thaliana
Procedure: The following experiment was performed to confirm that the attachment of the enzyme inhibitor squalestatin (squalene synthase inhibitor) had the effect of increasing production of amorpha-4,11-diene on 35S:ADS A. thaliana, which is an Arabidopsis thaliana into which had been introduced a gene encoding amorphadiene synthase (ADS).
The 35S:ADS A. thaliana is Arabidopsis thaliana in which a gene encoding ADS derived from Artemisia annua is overexpressed. It is properly managed as 433 7-5 line in Cell Technology Laboratory, Division of Advanced Science and Biotechnology, Graduate School of Engineering, Osaka University.
In order to sterilize 35S:ADS A. thaliana seeds, the seeds were immersed in a seed sterilization water (0.25% sodium hypochlorite solution, 1% SDS) for 20 minutes and then washed with sterilized water four times.
The seeds were plated on MS agar medium (Murashige and Skoog medium, including 4.4 g/L vitamins, 10 g/L sucrose, and 10 g/L agar) set to a pH of 5.8.
The plating was followed by vernalization for two or more days at 4° C. Thereafter, the seeds were cultured at 23° C. under long day conditions (16 hours light/8 hours dark) for seven days.
The resulting Arabidopsis thaliana seedlings were transferred to MS liquid media supplemented with squalestatin (SQS inhibitor) at squalestatin concentrations of 0, 1, 3, 5, 10, and 15 μmol/L, followed by further culturing for seven days with shaking at 23° C. under long day conditions (16 hours light/8 hours dark).
Amorpha-4,11-diene was extracted from the Arabidopsis thaliana plants by the following procedure. About 100 mg (wet weight) of Arabidopsis thaliana plants was placed in a mortar, to which was added about 5 mL of n-hexane. After 100 μL of a n-tetradecane solution was added as an internal standard, the mixture was subjected to grinding and extraction. The extract was once recovered, and the residue was combined with another 5 mL of fresh n-hexane, followed by grinding and extraction. The extract from the second extraction was combined with that from the first extraction. This cycle of operation was repeated twice. The resulting extract was passed through an anhydrous sodium sulfate column.
The eluate from the column was concentrated under reduced pressure to about 1 mL using a rotary evaporator, and then dried to a solid with a nitrogen blowing concentrator.
The dried solid was finally combined with 1 mL of n-hexane to prepare a sample for GC-MS analysis.
The GC-MS analysis was performed with a JMS-SUN200 mass spectrometer (JEOL) and a gas chromatograph (6890 series GC system: Agilent Technologies). […]
Instead of squalene synthase (SQS), squalene epoxidase (SQE), which is located one step downstream of SQS, was inhibited, and then the effect of increasing production of amorpha-4,11-diene was evaluated. […]

Taraxacum koksaghyz = assay: natural rubber production in Taraxacum koksaghyz sprayed with inhibitor solution (rubber dry weight); type: in vivo
Procedure: The following experiment was performed to confirm that the attachment of the enzyme inhibitor squalestatin (squalene synthase inhibitor) to the rubber-producing plant Taraxacum koksaghyz had the effect of increasing production of natural rubber.
Taraxacum koksaghyz seeds were vernalized for two or more days at 4° C. and then planted in soil.
After planted in soil, the seeds were grown at 25° C. under 12 h light/12 h dark conditions for five months.
Squalestatin was dissolved at a concentration of 10 μmol/L in 0.1% dimethyl sulfoxide (DMSO) to prepare a squalestatin solution. Two of the thus grown Taraxacum koksaghyz plants were each sprayed with 50 mL of the squalestatin solution once a day for four days using a spray.
As a comparative example, another two Taraxacum koksaghyz individuals were sprayed with 50 mL of a 0.1% dimethyl sulfoxide (DMSO) solution without squalestatin once a day for four days using a spray.
On day 5 after initiation of the treatment, latex was recovered from the Taraxacum koksaghyz roots and immersed in ethanol for five hours to solidify natural rubber.
The solidified natural rubber was dried at room temperature for three days. Thereafter, the dry weight was measured, and the results were compared.

Row | SMILES | amorpha-4,11-diene amount relative to treatment with the same concentration of squalestatin (35S:ADS A. thaliana; 5 μmol/L) | increase in the production of amorpha-4,11-diene (35S:ADS A. thaliana; terbinafine 1, 3 and 5 μmol/L, same procedure as Example 1) | accumulation of amorpha-4,11-diene (35S:ADS A. thaliana; treatment with 5 μmol/L) | amount of amorpha-4,11-diene inside Arabidopsis thaliana plants (35S:ADS A. thaliana; treatment with 3 μmol/L or more of squalestatin, seven-day shake culture, FIG. 2) | Rubber dry weight (Taraxacum koksaghyz; 10 μmol/L in 0.1% DMSO, 50 mL sprayed once a day for four days, latex from roots on day 5, average of two individuals) | increase in amount of natural rubber recovered versus plants not treated with squalestatin (Taraxacum koksaghyz; 10 μmol/L, sprayed once a day for four days)
1 | CN(C/C=C/C#CC(C)(C)C)Cc1cccc2ccccc12 [terbinafine] | a tenth or less | very little increase | about 0.004 μg gFW^-1 |  |  | 
2 | C=C(CC[C@]12O[C@H](C(=O)O)[C@@](O)(C(=O)O)[C@](C(=O)O)(O1)[C@H](OC(=O)/C=C/[C@@H](C)C[C@@H](C)CC)[C@H]2O)[C@@H](OC(C)=O)[C@H](C)Cc1ccccc1 [squalestatin] |  |  |  | increase | 4.2 mg | 2.5 times

Reference: patent US9719110B2, “Method of increasing production of amorpha-4,11-diene and method of increasing production of natural rubber” (SUMITOMO RUBBER INDUSTRIES, LTD., priority 2014, dated 2017)
